From US6107070A, “Human manganese superoxide dismutase proteins” (University of Florida, priority 1998, dated 2000)
Residue numbers refer to the chain shown, from its start. Values joined by “and” are separate entries in the source; they are usually repeats but may differ in a detail not shown here. Identical values can stand only once.

What was measured:
Type in all cases: biochemical
[1] = target: T1, human manganese superoxide dismutase (hMn SOD) variant Q143N (Gln 143 replaced by Asn), SEQ ID NO:3 (Homo sapiens, UniProt P04179, Q167N); test: Decay of superoxide catalyzed by Q143N hMnSOD, stopped-flow spectrophotometry at 5° C.
T1 construct: as a mature protein tagged with an extra Met at the amino terminus; made in house; host or cells: E. coli QC774 (SodA/SodB mutant), pTrc99A
T1 sequence (P04179 25-222 Q167N): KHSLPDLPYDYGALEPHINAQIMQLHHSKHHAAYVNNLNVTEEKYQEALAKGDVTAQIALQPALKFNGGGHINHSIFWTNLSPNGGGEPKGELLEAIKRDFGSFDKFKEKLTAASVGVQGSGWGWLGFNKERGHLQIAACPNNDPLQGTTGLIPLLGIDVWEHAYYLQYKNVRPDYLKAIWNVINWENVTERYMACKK
Experimental: (§1) Experiments were based on the stabilization of KO2 in aprotic solvent and the subsequent large dilution of this solution by an aqueous solution of enzyme in a stopped-flow apparatus, as described by McClune and Fee (1978). KO2 was dissolved in a mixture of dimethyl sulfoxide and […] (2:1 by volume; Aldrich, spectrophotometric grade) with solubility of KO2 enhanced with 18-crown-6 (Valentine and Curtis, 1975). The stopped-flow spectrophotometer (Kinetic Instruments, Ann Arbor, Mich.) was capable of efficient mixing of this solution with an acqueous solution of enzyme in buffer with a dead time between 1.5 and 2.0 ms. One drive syringe (capacity 50 μl) contained the aprotic solution of O2. This was diluted fifty-fold by the contents of a second syringe (capacity 2.5 ml) which contained enzyme, EDTA, and buffer. The decay of superoxide in initial velocity experiments and progress curves was monitored by its absorption at 250 to 300 nm. Stopped-flow experiments were carried out at […]. Four or more kinetic traces were averaged to reduce noise. Steady-state parameters were obtained by least-squares analysis of such data (Leatherbarrow (1987) "Enzfitter: a nonlinear regression data analysis program for the IBM PC" Elsevier BIOSOFT, Cambridge).

[2] = target: T1, human manganese superoxide dismutase (hMn SOD) variant Q143N (Gln 143 replaced by Asn), SEQ ID NO:3; test: Decay of superoxide catalyzed by Q143N hMnSOD, pulse radiolysis; conditions: FIG. 1; first-order fit, 35 μM enzyme, pH 9.6, 20° C.
Experimental: The solutions contained 0.5 μM wild-type MnSOD or 35 μM Q143N hMnSOD and 50 μM EDTA, 10 mM sodium formate, and 2.0 mM sodium pyrophosphate and pH 9.6 and 20° C. The solid line for Q143N hMnSOD is least-squares fit to a first-order process corresponding to Kcat /Km =1×10^6 M^-1 s^-1.
Experiments were carried out at the Center for Fast Kinetics Research at the University of Texas at Austin using a 4-Mev van der Graaff accelerator. A single high-dose electron pulse was used to generate superoxide radical anions from oxygen in acqueous solutions containing 10 mM sodium formate as hydroxyl radical scavenger (Schwartz, 1981) and 50 μM EDTA in addition to buffer and enzyme. All pulse radiolysis experiments were carried out at 20 ° C. The dismutation of O2^- was followed spectrophotometrically from its absorbance at 250 nm (ε=2000M^1 cm^1, Rabani and Nielson, 1969) with a path length of 2.5 cm. Progress curves for each set of 6 to 9 experiments were averaged. Exposure to ultraviolet radiation was minimized by opening a mechanical shutter a fraction of a second before each pulse.

[3] = target: T2, human manganese superoxide dismutase (hMn SOD) variant Y34F (Tyr34Phe) (Homo sapiens, UniProt P04179, Y58F); test: Disproportionation of superoxide by Y34F hMnSOD, Example 3 (Tables 4 and 5), 20° C.
T2 construct: as a mature protein tagged with an extra Met at the amino terminus; made in house; host or cells: E. coli QC774 (SodA/SodB mutant), pTrc99A
T2 sequence (P04179 25-222 Y58F): T1 sequence (P04179 25-222 Q167N) with Y34F, N143Q
Experimental: as §1
In the present study, several novel hMnSOD proteins containing substitutions of His 30 (referring to the amino acid sequence of SEQ ID NO:2) were prepared by PCR site directed mutagenesis and purified by column chromatography, as described in the Materials and Methods section above, and as also described by Hsu et al. (1996) J. Biol. Chem. 271: 1768; and Hsieh et al. (1998) Biochemistry 37: 4731. In particular, His 30 was substituted with each of Ala, Asn, Ser and Gln. The resulting novel hMnSOD proteins containing a His 30 substitution were then assayed for enzymatic activity and product inhibition at 20° C. by measuring the absorbance of superoxide at 250 nm using stopped-flow spectrophotometry, as described above in the Materials and Methods section. […]

[4] = target: T3, human manganese superoxide dismutase (hMn SOD) variant H30K (Homo sapiens, UniProt P04179, H54K); test: Disproportionation of superoxide by H30K hMnSOD, 20° C.; conditions: Table 4; pH 9.4, 20° C.
T3 construct: as a mature protein tagged with an extra Met at the amino terminus; made in house
T3 sequence (P04179 25-222 H54K): T1 sequence (P04179 25-222 Q167N) with H30K, N143Q

[5] = FIG. 2, Michaelis-Menten fit, H2O, 50 mM glycine buffer, 1 mM EDTA, pH 9.4, 5° C.
[6] = Table 1, stopped-flow spectrophotometry, 5° C., pH 9.4
[7] = Table 2, KINSIM fit of FIG. 8 scheme to stopped-flow data, 5° C., pH 9.4
[8] = Table 4, 20° C., pH 9.4 per footnote

Question: How did the kcat [1, 5] turn out when [O]O [superoxide] was run?
Answer: The kcat was 160 s⁻¹.

Question: What about the “kcat /Km” value [1, 5] of the same compound?
Answer: The value was 850000 M⁻¹ s⁻¹.

Question: And the “maximal value of Kcat /Km” value ([1]; FIG. 3, fit of pH profile pH 8.5 to 10.5, 5° C.)?
Answer: Its value is ~7×10^6 M^-1 s^-1 and 7±3×10^6 M^-1 s^-1.

Question: What about the “maximal value of Kcat” value ([1]; FIG. 4, fit of pH profile, 5° C., in 1/s) of the same compound?
Answer: Its value is 310±30.

Question: What about the kcat [1, 6] of the same compound?
Answer: The kcat was 0.3 ms^-1.

Question: And the kcat /km [1, 6]?
Answer: Its kcat /km is 820000 M⁻¹ s⁻¹.

Question: And the k1 [1, 7]?
Answer: The k1 was 2e+09 M⁻¹ s⁻¹.

Question: What about the k2 [1, 7] of the same compound?
Answer: The k2 was 600 s⁻¹.

Question: And the k3 [1, 7]?
Answer: The k3 was 2e+09 M⁻¹ s⁻¹.

Question: And the k4 [1, 7]?
Answer: Its k4 is 600 s⁻¹.

Question: And the k-1 [1, 7]?
Answer: The k-1 was 1.5e+06 s⁻¹.

Question: What about the k-4 [1, 7] of the same compound?
Answer: The k-4 was 1000 M⁻¹ s⁻¹.

Question: And the k-5 ([1]; Table 2, KINSIM fit, dead-end complex, 5° C., pH 9.4)?
Answer: Its k-5 is 200 s⁻¹.

Question: What about the k5 ([1]; Table 2, KINSIM fit, formation of dead-end complex, 5° C., pH 9.4) of the same compound?
Answer: The k5 was 20000 s⁻¹.

Question: What about the “kcat /Km” value ([1]; observed at pH 9.4, 5° C.) of the same compound?
Answer: Its value is 7×10^5 M^1 s^1.

Question: What about the “maximal value of Kcat” value ([1]; pH dependence (FIG. 4)) of the same compound?
Answer: Its value is roughly 300 s⁻¹.

Question: And the “kcat /Km” value [2]?
Answer: Its value is 1e+06 M⁻¹ s⁻¹.

Question: And the kcat [3, 8]?
Answer: Its kcat is 3.3 ms^.1.

Question: And the “kcat /Km” value [3, 8]?
Answer: The value was 870 μM^.1 S^.1.

Question: What about the “ko /[E] (rate constant for the zero-order region of catalysis)” value ([3]; Table 5, pH 9.6, 20° C.) of the same compound?
Answer: The value was 88 S^.1.

Question: And the kcat [4]?
Answer: The kcat was 0.74 ms^.1.

Question: What about the “kcat /Km” value [4] of the same compound?
Answer: Its value is 0.80 μM^.1 S^.1.
